Literature values as cited in publication PMC4364779, “IMD-4690, a Novel Specific Inhibitor for Plasminogen Activator Inhibitor-1, Reduces Allergic Airway Remodeling in a Mouse Model of Chronic Asthma via Regulating Angiogenesis and Remodeling-Related Mediators” (PLoS ONE, 2015).

Tested on: murine model of chronic asthma
Set-up: method as in PMID 22323366
Settings: cited from earlier work

Compound: O=C(O)C(=O)c1cn(Cc2ccccc2)c2ccc(-c3ccc(OC(F)(F)F)cc3)cc12 [tiplaxtinin]
- Allergic airway inflammation and lung collagen deposition: attenuated
